# According to article PMC12003839 (Communications Biology, 2025):
# Biological target: T1, ECHS1 (short-chain enoyl-CoA hydratase) (Homo sapiens, UniProt P30084)
# T1 sequence (P30084 28-290): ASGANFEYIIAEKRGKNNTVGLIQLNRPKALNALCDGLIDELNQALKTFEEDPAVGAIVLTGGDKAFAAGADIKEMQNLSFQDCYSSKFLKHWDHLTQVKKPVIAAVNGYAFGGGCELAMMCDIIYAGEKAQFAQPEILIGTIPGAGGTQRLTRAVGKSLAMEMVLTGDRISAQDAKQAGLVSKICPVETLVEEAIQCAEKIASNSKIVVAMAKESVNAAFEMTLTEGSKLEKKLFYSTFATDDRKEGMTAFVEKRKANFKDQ
# Experiment: SPR
# Format: binding
row,SMILES,Kd [nM]
1,CC(=O)CC(=O)SCCNC(=O)CCNC(=O)[C@H](O)C(C)(C)COP(=O)(O)OP(=O)(O)OC[C@H]1O[C@@H](n2cnc3c(N)ncnc32)[C@H](O)[C@@H]1OP(=O)(O)O [acetoacetyl-CoA],2690
2,C/C=C/C(=O)SCCNC(=O)CCNC(=O)[C@H](O)C(C)(C)COP(=O)(O)OP(=O)(O)OC[C@H]1O[C@@H](n2cnc3c(N)ncnc32)[C@H](O)[C@@H]1OP(=O)(O)O [crotonyl-CoA],863
3,CCCCCC(=O)SCCNC(=O)CCNC(=O)[C@H](O)C(C)(C)COP(=O)(O)OP(=O)(O)OC[C@H]1O[C@@H](n2cnc3c(N)ncnc32)[C@H](O)[C@@H]1OP(=O)(O)O [hexanoyl-CoA],2570
4,CCCCCCCC(=O)SCCNC(=O)CCNC(=O)[C@H](O)C(C)(C)COP(=O)(O)OP(=O)(O)OC[C@H]1O[C@@H](n2cnc3c(N)ncnc32)[C@H](O)[C@@H]1OP(=O)(O)O [octanoyl-CoA],2640
